Measured values as given in patent US10758536B2, “Method for treating shingles with N-methanocarbathymidine (N-MCT)” (priority 2015, dated 2020).

How the values were obtained:
VZV [1] = assay: Skin organ culture topical Assay 2: delayed treatment; format: cell-based, varicella-zoster virus
Method: (§1) Place 36 mL deionized sterile water into small beaker with stir bar. Slowly waft 900 mg of carbopol (980 NF, Lot # CCONLCC013, Lubrizol Corp) into water, avoiding clumps. Add equal volume N-MCT in 20% hydroxypropyl-β-cyclodextrin (Sigma) at 2× to reach the desired concentration. Add 2 drops NaOH (18% solution) to attain a pH near 5.0. Store at 4° C. The 0.5% cidofovir gel was made in a similar manner except that cidofovir was dissolved in water. The DMSO vehicle was prepared by adding a 2% DMSO solution in water to the carbopol suspension at a 1:1 ratio. Hydroxypropyl-β-cyclodextrin (HPBCD) was prepared by mixing 5.0 g with 20 mL sterile water. Stock solution of N-MCT was prepared by dissolving 90 mg N-MCT in 9 mL 20% HPBCD and sonicating for 1 min.
(§2) Human fetal skin was purchased from ABR and delivered by overnight courier on wet ice. The tissue was cleaned, disinfected in betadine and 70% ethanol, then cut into pieces approximately 1-cm^2. Each piece was inoculated with VZV-BAC-Luc strain that expresses firefly luciferase. Approximately 3 hours after inoculation, the pieces of skin were placed in NetWells above tissue culture medium and incubated overnight. The next day (Day 1) each piece of skin was soaked in D-luciferin for 45 min, and then scanned in the IVIS-50 instrument to measure Total Flux, which is a correlate of VZV pfu. The drug treatment began on Day 1 or later by spreading an aqueous gel (carbopol) containing N-MCT at concentrations of 0.05, 0.5, or 5% (see Assay 1 in Table 4 below). One group of skin was treated with cidofovir ([…] in carbopol gel) for a positive control. Each group contained 4-6 pieces of skin. The drug was applied daily until Day 5 (or other intervals), and then the skin pieces were scanned by IVIS to determine virus yield. […] The results were analyzed for statistical significance by ANOVA and Dunnett's post hoc test of multiple comparisons (GraphPad Prism).
This assay differs from Assay 1 in that the Vehicle was prepared with 10% HPBCD, which is the solvent for the N-MCT. Refer to Assay #2 in Table 4 above. Three groups were treated on Days 1-4 and scanned on Day 5, which is the typical assay protocol. Two groups were treated after a delay of several days, which more closely reflects a clinical scenario of zoster. All treated groups received the same preparation of 0.5% N-MCT in carbopol with 10% HPBCD. VZV yield was reduced in the Vehicle group during the treatment phase, and then rebounded. This was likely due to the effects of HPBCD, which has known antiviral properties. […] In contrast, VZV yield increased until Day 5 in the group that received no treatment until after this scan. The difference between this group and the Vehicle group was notable, since they were expected to be similar.

VZV [2] = assay: SCID-Hu mouse model of VZV replication, oral dose range; format: in vivo, varicella-zoster virus; details: all doses, N-MCT 5-100 mg/kg/day BID; p<0.0001, ANOVA and Dunnett
Method: SCID-hu mice with human skin xenografts were infected intradermally with VZV and treated orally twice daily with vehicle, PFA (positive control), or N-MCT at 5, 10, 20, 25, 50, or 100 mg/kg/day. Virus spread was measured daily by in vivo bioluminescence imaging (IVIS). […] The results were analyzed for statistical significance by ANOVA and Dunnett's post hoc test of multiple comparisons (GraphPad Prism).

VZV [3] = assay: Skin organ culture topical Assay 1: dose dependence (carbopol gel); format: cell-based, varicella-zoster virus
Method: as §1
A skin organ culture model was used to evaluate N-MCT as a topical treatment for VZV. Human skin explants were inoculated with VZV by scarification and treated daily from 1-4 days post infection with N-MCT (0.05, 0.5, or 5%) or cidofovir (0.5%, positive control) in a carbopol gel.
as §2

Q: How did the “antiviral effect on VZV in skin organ culture” value (VZV [1]; 10% in carbopol, no drug) turn out when CC(O)COC[C@H]1O[C@@H]2O[C@H]3[C@H](O)[C@@H](O)[C@@H](O[C@H]4[C@H](O)[C@@H](O)[C@@H](O[C@H]5[C@H](O)[C@@H](O)[C@@H](O[C@H]6[C@H](O)[C@@H](O)[C@@H](O[C@H]7[C@H](O)[C@@H](O)[C@@H](O[C@H]8[C@H](O)[C@@H](O)[C@@H](O[C@H]1[C@H](O)[C@H]2O)O[C@@H]8COCC(C)O)O[C@@H]7COCC(C)O)O[C@@H]6COCC(C)O)O[C@@H]5COCC(C)O)O[C@@H]4COCC(C)O)O[C@@H]3COCC(C)O (stereo partly drawn) [hydroxypropyl-β-cyclodextrin] was run?
A: moderate antiviral effect

Q: How did the “VZV yield and growth rates compared to vehicle” value (VZV [2]) turn out when O=C(O)P(=O)(O)O [PFA, phosphonoformic acid, reference compound] was run?
A: significantly reduced

Q: What does the source list for Nc1ccn(C[C@@H](CO)OCP(=O)(O)O)c(=O)n1 [cidofovir, reference compound]?
A: VZV yield, treatment on Days 1-4 (VZV [1]; 0.5% in carbopol QD 1-4 dpi, during and after treatment): dramatically reduced; VZV yield compared to vehicle (VZV [3]; N-MCT 0.05, 0.5, 5% or cidofovir in carbopol gel, daily, p<0.0004): significantly reduced; VZV replication in skin explants, topical gel (VZV [3]; N-MCT 0.05-5%, cidofovir 0.5% in carbopol gel): prevented VZV replication; reduction of virus yield compared to the vehicle group (VZV [3]; all concentrations, topical carbopol gel, p=0.0004): approximately 100 fold
